Test results: patent publication US10463644B2, “Uses of sesquiterpene lactone compounds and their derivatives in drugs preparation” (ACCENDATECH, priority 2013, dated 2019)
Like-named read-outs stand apart in the source and are kept apart here.

How the values were obtained:
cancer stem cells = test: Survival rate of cancer stem cells after test compound is added (flow cytometry, Annexin V-FITC/PI, clinical specimen); type: cell-based, patient; conditions: Homo sapiens, 18 h
Outline: (§1)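 Ficoll-isolated mononuclear cells from patient specimens (e.g. AML) in serum-free IMDM at 1×10^6/mL were exposed to compound for 18 hours. Cells were stained for stem-cell markers (CD34+CD38+ for AML) plus Annexin V-FITC/PI, and apoptosis was read by flow cytometry within one hour.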

[1] = test system: TNF-α secreted by synoviocyte; test: Content of TNF-α in culture supernatant of synoviocyte of RA model rats given test compound; type: in vivo; conditions: rat RA model, dose 30 mg/kg.2d; normal control 0.38 ± 0.027, NaCl 0.74 ± 0.098; 30 mg/kg
Outline: (§2)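 Rat RA model: compounds given at 30 mg/kg.2d, with normal control and NaCl groups. Synoviocyte culture supernatants assayed for secreted TNF-α and PGE2 by one referenced method, IL-1β by another.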

[2] = test system: PGE2 secreted by synoviocyte; test: Content of PGE2 in culture supernatant of synoviocyte of RA model rats given test compound; type: in vivo; conditions: rat RA model, dose 30 mg/kg.2d; normal control 8.34 ± 1.29, NaCl 32.44 ± 10.32; 30 mg/kg
Outline: as §2

cancer cells = test: Survival rate of cancer cells after test compound is added (flow cytometry, Annexin V-FITC/PI, clinical specimen); type: cell-based, patient; conditions: Homo sapiens, 18 h, read-out: Survival rate (%) All cells (Stem cells and ordinary cells)
Outline: as §1

[3] = test system: IL-1β secreted by synoviocyte; test: Content of IL-1β in culture supernatant of synoviocyte of RA model rats given test compound; type: in vivo; conditions: rat RA model, dose 30 mg/kg.2d; normal control 0.16 ± 0.034, NaCl 0.49 ± 0.136; 30 mg/kg
Outline: as §2

[4] = Head and neck squamous cell carcinomas

In the case of `CC1=C2CC[C@@](C)(O)[C@@H]2[C@H]2OC(=O)[C@@H](CN(C)C)[C@@H]2CC1` [Compound 23], the viability at 10 µM (cancer stem cells; AML) is reported as 85%, the viability at 20 µM (cancer stem cells; AML) is reported as 72% and the viability at 10 µM (cancer stem cells; Brain glioma) is reported as 84%. The viability at 20 µM (cancer stem cells; Brain glioma) was 76%, the viability at 10 µM (cancer stem cells; Brain tumor) was 85% and the viability at 20 µM (cancer stem cells; Brain tumor) was 73%. It also gave a viability at 10 µM (cancer stem cells; Breast cancer) of 84%, a viability at 20 µM (cancer stem cells; Breast cancer) of 74% and a viability at 10 µM (cancer stem cells; CLL) of 86%. The viability at 20 µM (cancer stem cells; CLL) was 74%, the viability at 10 µM (cancer stem cells; CML) was 87% and the viability at 20 µM (cancer stem cells; CML) was 71%. For the same compound, the viability at 10 µM (cancer stem cells; Children hepatoblastoma) was 85%, the viability at 20 µM (cancer stem cells; Children hepatoblastoma) was 79% and the viability at 10 µM (cancer stem cells; Colon adenocarcinoma) was 88%. It also gave a viability at 20 µM (cancer stem cells; Colon adenocarcinoma) of 81%, a viability at 10 µM (cancer stem cells; Colorectal cancer) of 79% and a viability at 20 µM (cancer stem cells; Colorectal cancer) of 72%. It also gave a viability at 10 µM (cancer stem cells; Gastric cancer) of 82%, a viability at 20 µM (cancer stem cells; Gastric cancer) of 77% and a viability at 10 µM (cancer stem cells; Gastrointestinal tumor) of 91%. The viability at 20 µM (cancer stem cells; Gastrointestinal tumor) was 82%, the viability at 10 µM (cancer stem cells; Glioma) was 87% and the viability at 20 µM (cancer stem cells; Glioma) was 76%. The viability at 10 µM (cancer stem cells; [4]) was 84%, the viability at 20 µM (cancer stem cells; [4]) was 78% and the viability at 10 µM (cancer stem cells; Laryngeal cancer) was 79%. It also gave a viability at 20 µM (cancer stem cells; Laryngeal cancer) of 73%, a viability at 10 µM (cancer stem cells; Liver cancer) of 82% and a viability at 20 µM (cancer stem cells; Liver cancer) of 79%. The viability at 10 µM (cancer stem cells; Lung adenocarcinoma) was 85%, the viability at 20 µM (cancer stem cells; Lung adenocarcinoma) was 82% and the viability at 10 µM (cancer stem cells; Lung cancer) was 85%. It also gave a viability at 20 µM (cancer stem cells; Lung cancer) of 78%, a viability at 10 µM (cancer stem cells; Malignant melanoma) of 82% and a viability at 20 µM (cancer stem cells; Malignant melanoma) of 76%. It also gave a viability at 10 µM (cancer stem cells; Nasopharynx cancer) of 85%, a viability at 20 µM (cancer stem cells; Nasopharynx cancer) of 74% and a viability at 10 µM (cancer stem cells; Ovarian cancer) of 87%. The viability at 20 µM (cancer stem cells; Ovarian cancer) was 75%, the viability at 10 µM (cancer stem cells; Pancreatic cancer) was 87% and the viability at 20 µM (cancer stem cells; Pancreatic cancer) was 77%. For the same compound, the viability at 10 µM (cancer stem cells; Prostate cancer) was 85%, the viability at 20 µM (cancer stem cells; Prostate cancer) was 77% and the viability at 10 µM (cancer stem cells; Retinoblastoma) was 82%. The viability at 20 µM (cancer stem cells; Retinoblastoma) was 74%, the viability at 10 µM (cancer stem cells; Skin cancer) was 85% and the viability at 20 µM (cancer stem cells; Skin cancer) was 75%. The “Content of TNF-α in culture supernatant of synoviocyte (x ± s)” value [1] was 0.63 ± 0.063 ng/mL, the “Content of PGE2 in culture supernatant of synoviocyte (x ± s)” value [2] was 21.71 ± 2.32 ng/mL and the viability at 10 µM (cancer cells; AML) was 92%. For the same compound, the viability at 20 µM (cancer cells; AML) was 84%, the viability at 10 µM (cancer cells; Brain glioma) was 88% and the viability at 20 µM (cancer cells; Brain glioma) was 85%. For the same compound, the viability at 10 µM (cancer cells; Brain tumor) was 89%, the viability at 20 µM (cancer cells; Brain tumor) was 85% and the viability at 10 µM (cancer cells; Breast cancer) was 89%. The viability at 20 µM (cancer cells; Breast cancer) was 86%, the viability at 10 µM (cancer cells; CLL) was 95% and the viability at 20 µM (cancer cells; CLL) was 85%. For the same compound, the viability at 10 µM (cancer cells; CML) was 91%, the viability at 20 µM (cancer cells; CML) was 79% and the viability at 10 µM (cancer cells; Children hepatoblastoma) was 93%. The viability at 20 µM (cancer cells; Children hepatoblastoma) was 86%, the viability at 10 µM (cancer cells; Colon adenocarcinoma) was 91% and the viability at 20 µM (cancer cells; Colon adenocarcinoma) was 89%. It also gave a viability at 10 µM (cancer cells; Colorectal cancer) of 88%, a viability at 20 µM (cancer cells; Colorectal cancer) of 81% and a viability at 10 µM (cancer cells; Gastric cancer) of 86%. For the same compound, the viability at 20 µM (cancer cells; Gastric cancer) was 84%, the viability at 10 µM (cancer cells; Gastrointestinal tumor) was 94% and the viability at 20 µM (cancer cells; Gastrointestinal tumor) was 88%. For the same compound, the viability at 10 µM (cancer cells; Glioma) was 94%, the viability at 20 µM (cancer cells; Glioma) was 87% and the viability at 10 µM (cancer cells; [4]) was 91%. It also gave a viability at 20 µM (cancer cells; [4]) of 88%, a viability at 10 µM (cancer cells; Laryngeal cancer) of 88% and a viability at 20 µM (cancer cells; Laryngeal cancer) of 82%. It also gave a viability at 10 µM (cancer cells; Liver cancer) of 88%, a viability at 20 µM (cancer cells; Liver cancer) of 87% and a viability at 10 µM (cancer cells; Lung adenocarcinoma) of 87%. It also gave a viability at 20 µM (cancer cells; Lung adenocarcinoma) of 87%, a viability at 10 µM (cancer cells; Lung cancer) of 88% and a viability at 20 µM (cancer cells; Lung cancer) of 84%. It also gave a viability at 10 µM (cancer cells; Malignant melanoma) of 89%, a viability at 20 µM (cancer cells; Malignant melanoma) of 86% and a viability at 10 µM (cancer cells; Nasopharynx cancer) of 94%. It also gave a viability at 20 µM (cancer cells; Nasopharynx cancer) of 81%, a viability at 10 µM (cancer cells; Ovarian cancer) of 91% and a viability at 20 µM (cancer cells; Ovarian cancer) of 84%. It also gave a viability at 10 µM (cancer cells; Pancreatic cancer) of 90%, a viability at 20 µM (cancer cells; Pancreatic cancer) of 86% and a viability at 10 µM (cancer cells; Prostate cancer) of 92%. It also gave a viability at 20 µM (cancer cells; Prostate cancer) of 89%, a viability at 10 µM (cancer cells; Retinoblastoma) of 91% and a viability at 20 µM (cancer cells; Retinoblastoma) of 85%. The viability at 10 µM (cancer cells; Skin cancer) was 95%, the viability at 20 µM (cancer cells; Skin cancer) was 87% and the “Content of IL-1β in culture supernatant of synoviocyte (x ± s)” value [3] was 0.36 ± 0.065 ng/mL.
